Consider three compounds from patent publication US10561658B2, “Thieno- and pyrrolopyrimidine analogues as anticancer agents and methods of use thereof” (UNIVERSITY OF MARYLAND, BALTIMORE COUNTY, priority 2015, dated 2020).

SMILES strings stand for the structures.

Data set [1] deals with melanoma tumor. The experiment in a line: In vivo activity screen, intra-tumor injection. The following applies: intra-tumor injection 0.01 mg/100 mm^3 tumor, 5 days on/2 days off, 21 days. The arrangement: species or system mice. An excerpt:
The asterisk denotes […] when compared to the vehicle only (n=6-10 mice). Melanoma is viewed as resistant to nucleoside analogues, since traditional FDA-approved nucleosides have minimal effects on growth inhibition (100-90% growth percent) and apoptosis (5-10% cell death).

The target of data set [2] is PRKCN (PKD3) (Homo sapiens, UniProt O94806). The experiment in a line: Select Screen kinase profiling. It is filed as biochemical. An excerpt:
(§1) The thieno[3,2-d]pyrimidine scaffold has been used extensively in the design of kinase inhibitors.

In data set [3] the target is T1, JAK2 JH1 JH2 V617F (Homo sapiens, UniProt O60674, V617F).
T1 construct: JAK2 JH1 JH2 V617F
Briefly: Select Screen kinase profiling. It is filed as biochemical.
Text: as §1

Data set [4] has as its target PIK3CA/PIK3R1 (Homo sapiens, UniProt P42336). The experiment in a line: Select Screen kinase profiling. It is filed as biochemical.
Text: as §1

For data set [5], the target named is PIK3C3 (Homo sapiens, UniProt Q8NEB9). Briefly: Select Screen kinase profiling. It is filed as biochemical.
Text: as §1

The target in data set [6] is JAK3 (Homo sapiens, UniProt P52333). The experiment in a line: Select Screen kinase profiling. Format: biochemical.
Text: as §1

The target of data set [7] is PRKD2 (PKD2) (Homo sapiens, UniProt Q9BZL6). The experiment in a line: Select Screen kinase profiling. It is filed as biochemical.
Text: as §1

Data set [8] deals with PIK3CG (Homo sapiens, UniProt P48736). The experiment in a line: Select Screen kinase profiling. Format: biochemical.
Text: as §1

Data set [9] deals with PIK3C2B (Homo sapiens, UniProt O00750). The experiment in a line: Select Screen kinase profiling. Format: biochemical.
Text: as §1

Data set [10] addresses PRKD1 (PKC mu) (Homo sapiens, UniProt Q15139). The experiment in a line: Select Screen kinase profiling. Format: biochemical.
Text: as §1

The target in data set [11] is SRC (Homo sapiens, UniProt P12931). The experiment in a line: Select Screen kinase profiling. Format: biochemical.
Text: as §1

The nature of data set [12]: In vivo systemic (IP) toxicity, body weight. The source says: When dosing was completed, the mice were monitored for 14 days to determine any toxicity. In mice the best indicator of toxicity is weight loss.
The test system of data set [13] is susceptible fungal strains. Briefly: Antifungal MIC95 comparison on susceptible fungal strains. Format: cell-based. The following applies: MIC95, Table 3 fungal strains. On the procedure:
Evaluation of antimicrobial activity in vitro. Compounds were tested against the following panel of bacteria and fungi purchased from the American Type Culture Collection (ATCC). Briefly, bacteria were grown to mid-log phase, diluted with fresh medium to an optical density at 600 nm (OD600) of 0.030-0.060 and then diluted again 1:10. This suspension (195 μL) was added to wells in a 96 well microtiter plate (Sarstedt) and 5 μL of compound dissolved in DMSO was added to give a final concentration of 100-0.1 μM at 2.5% DMSO by volume. A DMSO negative control and standard antibiotic positive controls were included in each plate. All compounds were tested in triplicate for each concentration. Plates were sealed with parafilm, placed in a Ziploc bag to prevent evaporation, and incubated at 30° C. (fungi) or 37° C. (bacteria) for 16-20 hours (48 hours for C. neoformans). The OD600 values for each well were determined with a plate reader (Biotek, EL800) and the data were standardized to the DMSO control wells after subtracting the background from blank medium. Initial single concentrations were tested at 100 μM and active compounds were further tested with at least nine concentrations for a full dose response. Dose response curves were generated using GraphPad Prism 5 software and used to determine the MIC95 concentrations (minimal concentration that inhibits 95% of growth). […]

Data set [14] relates to human cervix carcinoma HeLa cells. The experiment in a line: Cell proliferation assay, HeLa. Format: cell-based. The following applies: 72 h proliferation, Coulter counter. On the procedure:
Cell proliferation assays for several of the compounds were performed on L1210, a mouse lymphocytic leukemia cell line; CCRF-CEM [39] an acute lymphoblastic leukemia cell line; and HeLa, a human cancer cell line derived from a human cervical adenocarcinoma. Murine Leukemia L1210, human lymphocytic CEM and human cervix carcinoma HeLa cells were obtained from the American Type Culture Collection (ATCC) (Rockville, Md.). All assays were performed in 96-well microtiter plates. To each well were added (5-7.5)×10^4 tumor cells and a given amount of the test compound. The cells were allowed to proliferate for 48 h (murine leukemia L1210 cells) or 72 h (human lymphocytic CEM and human cervix carcinoma HeLa cells) at 37° C. in a humidified CO2-controlled atmosphere. At the end of the incubation period, the cells were counted in a Coulter counter. The IC50 (50% inhibitory concentration) was defined as the concentration of the compound that inhibited cell proliferation by 50%. […] Presence of C7 iodine on the 2,4-dichloro pyrrolo[3,2-d] (compound 20) increases the anticancer activity by a factor of 5 when compared to compound 19. […] This alludes to a) importance of C7-I towards activity against cancer cell lines for the 2,4-O-benzylated analogues (15 and 16).

PIK3CA/PIK3R1, sequence (P42336 whole entry): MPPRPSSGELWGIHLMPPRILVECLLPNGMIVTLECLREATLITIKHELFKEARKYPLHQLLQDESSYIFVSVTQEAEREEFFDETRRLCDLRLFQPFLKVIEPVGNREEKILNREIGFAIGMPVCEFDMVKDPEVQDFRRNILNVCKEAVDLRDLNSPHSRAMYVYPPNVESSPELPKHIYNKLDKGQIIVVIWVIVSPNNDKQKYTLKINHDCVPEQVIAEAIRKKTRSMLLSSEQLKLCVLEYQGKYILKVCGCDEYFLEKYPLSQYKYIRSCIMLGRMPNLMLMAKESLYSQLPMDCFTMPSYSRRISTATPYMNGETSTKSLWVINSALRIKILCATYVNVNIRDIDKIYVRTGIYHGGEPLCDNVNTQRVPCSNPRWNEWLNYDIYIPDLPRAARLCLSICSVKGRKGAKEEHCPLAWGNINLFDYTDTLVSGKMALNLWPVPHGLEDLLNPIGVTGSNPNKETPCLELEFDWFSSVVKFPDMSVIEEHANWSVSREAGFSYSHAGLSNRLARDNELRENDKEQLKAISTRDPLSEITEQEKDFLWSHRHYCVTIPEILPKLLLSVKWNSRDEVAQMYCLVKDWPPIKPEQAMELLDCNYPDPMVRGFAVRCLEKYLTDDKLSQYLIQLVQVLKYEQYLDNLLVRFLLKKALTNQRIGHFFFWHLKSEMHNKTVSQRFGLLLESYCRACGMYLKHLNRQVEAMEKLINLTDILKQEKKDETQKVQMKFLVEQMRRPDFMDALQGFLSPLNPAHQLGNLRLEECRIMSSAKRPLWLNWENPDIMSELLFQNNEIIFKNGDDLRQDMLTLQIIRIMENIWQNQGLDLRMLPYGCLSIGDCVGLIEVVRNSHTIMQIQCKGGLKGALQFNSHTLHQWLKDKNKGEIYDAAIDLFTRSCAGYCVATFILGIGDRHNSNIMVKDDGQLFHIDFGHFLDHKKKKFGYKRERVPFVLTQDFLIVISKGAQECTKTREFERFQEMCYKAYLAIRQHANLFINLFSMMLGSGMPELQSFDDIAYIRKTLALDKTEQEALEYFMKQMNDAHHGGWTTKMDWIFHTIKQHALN
PIK3CA/PIK3R1, sequence (P27986 whole entry partner): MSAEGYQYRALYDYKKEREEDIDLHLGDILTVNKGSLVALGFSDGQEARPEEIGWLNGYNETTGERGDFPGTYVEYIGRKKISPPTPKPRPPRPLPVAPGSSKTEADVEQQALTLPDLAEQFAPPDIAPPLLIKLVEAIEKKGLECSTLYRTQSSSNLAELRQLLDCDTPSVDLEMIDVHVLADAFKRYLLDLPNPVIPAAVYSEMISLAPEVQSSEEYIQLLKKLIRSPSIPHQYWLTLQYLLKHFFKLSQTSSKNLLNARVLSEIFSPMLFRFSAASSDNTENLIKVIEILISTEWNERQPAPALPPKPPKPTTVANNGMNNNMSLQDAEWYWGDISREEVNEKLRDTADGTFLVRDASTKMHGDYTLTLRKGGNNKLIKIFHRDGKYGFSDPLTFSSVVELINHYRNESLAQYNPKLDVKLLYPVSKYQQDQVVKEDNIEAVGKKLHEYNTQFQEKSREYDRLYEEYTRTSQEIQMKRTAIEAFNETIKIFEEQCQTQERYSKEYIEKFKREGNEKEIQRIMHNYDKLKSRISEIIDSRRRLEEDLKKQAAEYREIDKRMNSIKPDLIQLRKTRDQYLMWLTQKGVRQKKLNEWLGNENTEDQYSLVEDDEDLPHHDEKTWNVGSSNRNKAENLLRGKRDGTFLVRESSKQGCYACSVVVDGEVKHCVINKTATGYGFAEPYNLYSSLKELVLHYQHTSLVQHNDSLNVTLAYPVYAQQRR
PIK3C2B, sequence (O00750 whole entry): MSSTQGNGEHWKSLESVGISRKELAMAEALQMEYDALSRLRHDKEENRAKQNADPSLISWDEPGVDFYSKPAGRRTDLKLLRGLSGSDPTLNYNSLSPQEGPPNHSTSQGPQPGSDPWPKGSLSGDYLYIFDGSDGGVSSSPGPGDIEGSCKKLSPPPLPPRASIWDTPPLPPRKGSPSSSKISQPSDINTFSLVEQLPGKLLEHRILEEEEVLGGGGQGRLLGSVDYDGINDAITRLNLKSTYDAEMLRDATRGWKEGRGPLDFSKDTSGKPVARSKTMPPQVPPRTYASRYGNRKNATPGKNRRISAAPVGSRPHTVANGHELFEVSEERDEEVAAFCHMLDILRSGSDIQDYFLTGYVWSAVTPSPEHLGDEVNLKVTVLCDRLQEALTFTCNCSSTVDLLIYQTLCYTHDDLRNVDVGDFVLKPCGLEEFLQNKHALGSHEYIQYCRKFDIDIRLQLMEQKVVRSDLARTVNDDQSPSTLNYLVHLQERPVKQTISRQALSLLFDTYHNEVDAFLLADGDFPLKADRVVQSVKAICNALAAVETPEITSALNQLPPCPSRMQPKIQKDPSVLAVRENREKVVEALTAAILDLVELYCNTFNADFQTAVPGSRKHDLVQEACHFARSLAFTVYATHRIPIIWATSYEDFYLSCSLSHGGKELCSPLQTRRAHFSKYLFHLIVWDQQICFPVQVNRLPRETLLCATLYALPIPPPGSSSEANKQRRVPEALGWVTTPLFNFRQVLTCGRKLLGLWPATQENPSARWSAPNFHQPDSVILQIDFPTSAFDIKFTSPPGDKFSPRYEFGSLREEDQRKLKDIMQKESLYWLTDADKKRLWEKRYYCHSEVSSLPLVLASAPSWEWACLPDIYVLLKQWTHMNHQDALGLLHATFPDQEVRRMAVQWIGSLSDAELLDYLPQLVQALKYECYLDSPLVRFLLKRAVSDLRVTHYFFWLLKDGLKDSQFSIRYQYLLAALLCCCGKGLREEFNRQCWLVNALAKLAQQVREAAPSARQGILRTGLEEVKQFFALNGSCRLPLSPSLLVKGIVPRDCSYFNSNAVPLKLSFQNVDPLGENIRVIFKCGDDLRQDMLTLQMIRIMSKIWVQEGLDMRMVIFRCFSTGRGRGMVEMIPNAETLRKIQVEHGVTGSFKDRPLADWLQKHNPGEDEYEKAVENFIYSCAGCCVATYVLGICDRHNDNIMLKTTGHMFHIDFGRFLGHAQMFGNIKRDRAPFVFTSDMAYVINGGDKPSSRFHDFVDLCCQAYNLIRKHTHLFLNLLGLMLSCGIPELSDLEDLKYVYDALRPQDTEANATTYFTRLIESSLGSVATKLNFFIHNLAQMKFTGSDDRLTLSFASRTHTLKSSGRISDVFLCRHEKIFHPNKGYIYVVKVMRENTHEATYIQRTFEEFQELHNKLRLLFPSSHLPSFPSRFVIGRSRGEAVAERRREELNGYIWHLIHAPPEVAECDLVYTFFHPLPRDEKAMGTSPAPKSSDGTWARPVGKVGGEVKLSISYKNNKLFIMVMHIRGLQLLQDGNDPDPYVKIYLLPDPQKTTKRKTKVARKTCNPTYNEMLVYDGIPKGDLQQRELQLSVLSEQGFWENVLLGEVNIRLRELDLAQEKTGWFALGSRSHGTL
SRC, sequence (P12931 whole entry): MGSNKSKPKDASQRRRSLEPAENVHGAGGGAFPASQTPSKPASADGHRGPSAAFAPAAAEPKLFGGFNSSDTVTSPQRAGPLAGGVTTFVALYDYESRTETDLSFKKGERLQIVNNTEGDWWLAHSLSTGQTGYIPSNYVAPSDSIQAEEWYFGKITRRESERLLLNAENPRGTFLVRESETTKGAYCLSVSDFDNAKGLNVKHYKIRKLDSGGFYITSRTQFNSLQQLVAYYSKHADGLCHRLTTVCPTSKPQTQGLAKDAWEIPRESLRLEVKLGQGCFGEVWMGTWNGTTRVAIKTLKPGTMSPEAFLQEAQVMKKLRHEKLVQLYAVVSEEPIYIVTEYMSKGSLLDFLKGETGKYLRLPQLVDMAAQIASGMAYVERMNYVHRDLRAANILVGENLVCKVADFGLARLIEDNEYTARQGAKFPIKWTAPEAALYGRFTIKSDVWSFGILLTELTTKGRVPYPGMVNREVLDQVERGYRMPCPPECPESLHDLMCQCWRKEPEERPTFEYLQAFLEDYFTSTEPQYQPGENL
JAK3, sequence (P52333 whole entry): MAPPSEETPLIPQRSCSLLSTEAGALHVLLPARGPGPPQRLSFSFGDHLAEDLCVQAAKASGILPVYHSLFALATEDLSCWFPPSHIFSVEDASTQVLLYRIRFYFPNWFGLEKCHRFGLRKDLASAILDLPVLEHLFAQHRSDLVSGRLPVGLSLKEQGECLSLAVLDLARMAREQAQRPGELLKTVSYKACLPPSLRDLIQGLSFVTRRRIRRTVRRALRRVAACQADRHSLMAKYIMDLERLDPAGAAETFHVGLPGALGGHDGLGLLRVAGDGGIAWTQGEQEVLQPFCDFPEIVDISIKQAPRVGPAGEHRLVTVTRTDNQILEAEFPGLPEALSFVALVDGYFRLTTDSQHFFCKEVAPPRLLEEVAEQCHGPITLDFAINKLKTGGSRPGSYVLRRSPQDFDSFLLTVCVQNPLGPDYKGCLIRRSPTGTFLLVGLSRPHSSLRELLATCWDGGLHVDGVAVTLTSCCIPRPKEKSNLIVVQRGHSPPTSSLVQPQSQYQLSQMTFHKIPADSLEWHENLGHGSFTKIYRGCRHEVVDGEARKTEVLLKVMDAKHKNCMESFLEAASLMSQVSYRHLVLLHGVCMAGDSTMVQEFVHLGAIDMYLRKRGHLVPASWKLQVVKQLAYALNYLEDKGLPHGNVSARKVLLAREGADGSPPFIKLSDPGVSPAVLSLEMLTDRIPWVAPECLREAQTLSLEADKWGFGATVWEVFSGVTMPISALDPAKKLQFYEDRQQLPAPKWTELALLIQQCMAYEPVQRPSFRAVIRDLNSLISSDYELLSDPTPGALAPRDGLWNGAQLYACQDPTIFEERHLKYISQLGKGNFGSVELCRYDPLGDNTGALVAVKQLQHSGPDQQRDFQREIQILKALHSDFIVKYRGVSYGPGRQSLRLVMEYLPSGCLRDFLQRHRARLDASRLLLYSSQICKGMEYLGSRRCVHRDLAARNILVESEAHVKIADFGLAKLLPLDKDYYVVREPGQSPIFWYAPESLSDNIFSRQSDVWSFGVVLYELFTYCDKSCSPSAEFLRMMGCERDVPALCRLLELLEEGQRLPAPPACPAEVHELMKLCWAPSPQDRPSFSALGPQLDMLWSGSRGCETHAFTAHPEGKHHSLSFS

One may read the inhibition as the relative decrease from the control value, in per cent. Low readings indicate a weak effect, high ones a strong effect. Turning to `Clc1nc(Cl)c2sccc2n1` [Compound 1, 2,4-Dichlorothieno[3,2-d]pyrimidine], in data set [1], the “anti-cancer activity (tumor responsiveness) in vivo” value is reported as “comparable to the current standard of care, temozolomide”. Also, the inhibition at 5 µM in [2], in data set [3], in data set [4], in data set [5], in data set [6] and in data set [7] was less than 40% throughout. Also, the inhibition at 5 µM in data set [8], in [9], in [10] and in data set [11] was less than 40% throughout. For the same compound, in [12] (20 mg/kg IP, 5 days), the body weight result was “maintaining their weight”. In data set [12] (daily IP doses 5 consecutive days, monitored 14 days), the “toxicity when administered systemically” value is listed as “non-toxic”.
Consider `Clc1nc(Cl)c2scc(Br)c2n1` [Compound 2, 7-Bromo-2,4-dichlorothieno[3,2-d]pyrimidine], for which the “times more potent than compound 1” value in [13] is 2-5.
As a reminder, the IC50 is the concentration that inhibits the measured activity by half. Higher therefore signals weaker potency. As for `Clc1nc(Cl)c2[nH]ccc2n1` [Compound 19, 2,4-Dichloropyrrolo[3,2-d]pyrimidine], in data set [14], half-maximal inhibition (IC50) was put at 19 µM.
